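In this assay, cells in 96-well plates receive the compound at five concentrations for 48 hours. Endpoints are linearly interpolated between the surrounding concentrations. Definition used: TGI = concentration required for complete inhibition of growth.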
Assays:
Assay in all cases: NCI-60 cell line screen, 48 h
HOP-92 NSCLC = test system: HOP-92 NSCLC
T-47D breast = test system: T-47D breast
OVCAR-8 ovarian = test system: OVCAR-8 ovarian
MDA-N = test system: MDA-N
SK-MEL-5 melanoma = test system: SK-MEL-5 melanoma
MALME-3M melanoma = test system: MALME-3M melanoma
OVCAR-3 ovarian = test system: OVCAR-3 ovarian
MOLT-4 leukemia = test system: MOLT-4 leukemia
HOP-62 NSCLC = test system: HOP-62 NSCLC
K-562 leukemia = test system: K-562 leukemia
MCF7 breast = test system: MCF7 breast
M14 melanoma = test system: M14 melanoma
SNB-19 CNS = test system: SNB-19 CNS
OVCAR-5 ovarian = test system: OVCAR-5 ovarian
COLO 205 colon = test system: COLO 205 colon
CAKI-1 renal = test system: CAKI-1 renal
KM12 colon = test system: KM12 colon
SW-620 colon = test system: SW-620 colon
SK-OV-3 ovarian = test system: SK-OV-3 ovarian
SF-268 CNS = test system: SF-268 CNS
SF-539 CNS = test system: SF-539 CNS
MDA-MB-231 breast = test system: MDA-MB-231 breast
RXF 393 renal = test system: RXF 393 renal
HL-60(TB) leukemia = test system: HL-60(TB) leukemia
HCT-15 colon = test system: HCT-15 colon
NCI-H522 lung = test system: NCI-H522 lung
NCI/ADR-RES ovarian = test system: NCI/ADR-RES ovarian
A549 NSCLC = test system: A549 NSCLC
HCT-116 colon = test system: HCT-116 colon
OVCAR-4 ovarian = test system: OVCAR-4 ovarian
HT29 colon = test system: HT29 colon
NCI-H460 lung = test system: NCI-H460 lung
SNB-75 CNS = test system: SNB-75 CNS
U251 CNS = test system: U251 CNS
UO-31 renal = test system: UO-31 renal
UACC-257 melanoma = test system: UACC-257 melanoma
IGROV1 ovarian = test system: IGROV1 ovarian
TK-10 renal = test system: TK-10 renal
SF-295 CNS = test system: SF-295 CNS
HCC-2998 colon = test system: HCC-2998 colon
CCRF-CEM leukemia = test system: CCRF-CEM leukemia
SK-MEL-2 melanoma = test system: SK-MEL-2 melanoma
UACC-62 melanoma = test system: UACC-62 melanoma
NCI-H23 lung = test system: NCI-H23 lung
HS 578T breast = test system: HS 578T breast
EKVX NSCLC = test system: EKVX NSCLC
RPMI-8226 leukemia = test system: RPMI-8226 leukemia
PC-3 prostate = test system: PC-3 prostate
NCI-H226 lung = test system: NCI-H226 lung
BT-549 breast = test system: BT-549 breast
SR leukemia = test system: SR leukemia
LOX IMVI melanoma = test system: LOX IMVI melanoma
SK-MEL-28 melanoma = test system: SK-MEL-28 melanoma
MDA-MB-435 = test system: MDA-MB-435
A498 renal = test system: A498 renal
786-0 renal = test system: 786-0 renal
ACHN renal = test system: ACHN renal
SN12C renal = test system: SN12C renal
DU-145 prostate = test system: DU-145 prostate

In the case of `CCOC1OC(C)(C=C(C#N)C#N)CCC1C` (configuration not stated), the TGI (HOP-92 NSCLC) is reported as greater than 100 µM, the TGI (T-47D breast) is reported as greater than 100 µM and the TGI (OVCAR-8 ovarian) is reported as greater than 68 µM. For the same compound, the TGI (MDA-N) was greater than 100 µM, the TGI (SK-MEL-5 melanoma) was greater than 100 µM and the TGI (MALME-3M melanoma) was greater than 100 µM. The TGI (OVCAR-3 ovarian) was greater than 71.6 µM, the TGI (MOLT-4 leukemia) was greater than 100 µM and the TGI (HOP-62 NSCLC) was greater than 100 µM. It also gave a TGI (K-562 leukemia) of 56.8 µM, a TGI (MCF7 breast) greater than 100 µM and a TGI (M14 melanoma) greater than 100 µM. For the same compound, the TGI (SNB-19 CNS) was greater than 100 µM, the TGI (OVCAR-5 ovarian) was greater than 100 µM and the TGI (COLO 205 colon) was greater than 100 µM. For the same compound, the TGI (CAKI-1 renal) was 96.2 µM, the TGI (KM12 colon) was greater than 100 µM and the TGI (SW-620 colon) was greater than 100 µM. For the same compound, the TGI (SK-OV-3 ovarian) was greater than 100 µM, the TGI (SF-268 CNS) was greater than 100 µM and the TGI (SF-539 CNS) was 56.6 µM. It also gave a TGI (MDA-MB-231 breast) greater than 100 µM, a TGI (RXF 393 renal) greater than 91.7 µM and a TGI (HL-60(TB) leukemia) of 80.4 µM. For the same compound, the TGI (HCT-15 colon) was greater than 71.2 µM, the TGI (NCI-H522 lung) was 39.5 µM and the TGI (NCI/ADR-RES ovarian) was greater than 88.7 µM. For the same compound, the TGI (A549 NSCLC) was greater than 100 µM, the TGI (HCT-116 colon) was greater than 100 µM and the TGI (OVCAR-4 ovarian) was greater than 100 µM. The TGI (HT29 colon) was greater than 93.9 µM, the TGI (NCI-H460 lung) was 98.7 µM and the TGI (SNB-75 CNS) was greater than 100 µM. The TGI (U251 CNS) was greater than 100 µM, the TGI (UO-31 renal) was 97.7 µM and the TGI (UACC-257 melanoma) was greater than 100 µM. The TGI (IGROV1 ovarian) was 36.8 µM, the TGI (TK-10 renal) was greater than 100 µM and the TGI (SF-295 CNS) was greater than 100 µM. The TGI (HCC-2998 colon) was greater than 74.3 µM, the TGI (CCRF-CEM leukemia) was greater than 86 µM and the TGI (SK-MEL-2 melanoma) was greater than 100 µM. The TGI (UACC-62 melanoma) was greater than 100 µM, the TGI (NCI-H23 lung) was greater than 100 µM and the TGI (HS 578T breast) was greater than 89.1 µM. The TGI (EKVX NSCLC) was greater than 100 µM, the TGI (RPMI-8226 leukemia) was 70.6 µM and the TGI (PC-3 prostate) was greater than 100 µM. It also gave a TGI (NCI-H226 lung) of 55.2 µM, a TGI (BT-549 breast) greater than 70.3 µM and a TGI (SR leukemia) greater than 76.2 µM. It also gave a TGI (LOX IMVI melanoma) greater than 75.8 µM, a TGI (SK-MEL-28 melanoma) greater than 100 µM and a TGI (MDA-MB-435) greater than 100 µM. The TGI (A498 renal) was 51 µM, the TGI (786-0 renal) was greater than 89.2 µM and the TGI (ACHN renal) was greater than 100 µM. The TGI (SN12C renal) was greater than 86.6 µM and the TGI (DU-145 prostate) was greater than 100 µM.
For `CCOC(=O)NC(Nc1ccc(C(=O)O)cc1)(C(F)(F)F)C(F)(F)F`, the TGI (HOP-92 NSCLC) was greater than 100 µM, the TGI (T-47D breast) was greater than 100 µM and the TGI (OVCAR-8 ovarian) was greater than 100 µM. It also gave a TGI (MDA-N) greater than 100 µM, a TGI (SK-MEL-5 melanoma) greater than 100 µM and a TGI (MALME-3M melanoma) greater than 100 µM. The TGI (OVCAR-3 ovarian) was greater than 100 µM, the TGI (MOLT-4 leukemia) was greater than 100 µM and the TGI (HOP-62 NSCLC) was greater than 100 µM. For the same compound, the TGI (K-562 leukemia) was greater than 100 µM, the TGI (MCF7 breast) was greater than 100 µM and the TGI (M14 melanoma) was greater than 100 µM. For the same compound, the TGI (SNB-19 CNS) was greater than 100 µM, the TGI (OVCAR-5 ovarian) was greater than 100 µM and the TGI (COLO 205 colon) was greater than 100 µM. The TGI (CAKI-1 renal) was greater than 100 µM, the TGI (KM12 colon) was greater than 100 µM and the TGI (SW-620 colon) was greater than 100 µM. For the same compound, the TGI (SK-OV-3 ovarian) was greater than 100 µM, the TGI (SF-268 CNS) was greater than 100 µM and the TGI (SF-539 CNS) was greater than 100 µM. For the same compound, the TGI (MDA-MB-231 breast) was greater than 100 µM, the TGI (RXF 393 renal) was greater than 100 µM and the TGI (HL-60(TB) leukemia) was greater than 100 µM. It also gave a TGI (HCT-15 colon) greater than 100 µM, a TGI (NCI-H522 lung) greater than 100 µM and a TGI (NCI/ADR-RES ovarian) greater than 100 µM. For the same compound, the TGI (A549 NSCLC) was greater than 100 µM, the TGI (HCT-116 colon) was greater than 100 µM and the TGI (HT29 colon) was greater than 100 µM. It also gave a TGI (NCI-H460 lung) greater than 100 µM, a TGI (SNB-75 CNS) greater than 100 µM and a TGI (U251 CNS) greater than 100 µM. For the same compound, the TGI (UO-31 renal) was greater than 100 µM, the TGI (UACC-257 melanoma) was greater than 100 µM and the TGI (IGROV1 ovarian) was greater than 100 µM. It also gave a TGI (TK-10 renal) greater than 100 µM, a TGI (SF-295 CNS) greater than 100 µM and a TGI (HCC-2998 colon) greater than 100 µM. The TGI (CCRF-CEM leukemia) was greater than 100 µM, the TGI (SK-MEL-2 melanoma) was greater than 100 µM and the TGI (UACC-62 melanoma) was greater than 100 µM. For the same compound, the TGI (NCI-H23 lung) was greater than 100 µM, the TGI (HS 578T breast) was greater than 100 µM and the TGI (EKVX NSCLC) was greater than 100 µM. It also gave a TGI (RPMI-8226 leukemia) greater than 100 µM, a TGI (PC-3 prostate) greater than 100 µM and a TGI (NCI-H226 lung) greater than 100 µM. The TGI (BT-549 breast) was greater than 100 µM, the TGI (SR leukemia) was greater than 100 µM and the TGI (LOX IMVI melanoma) was greater than 100 µM. The TGI (SK-MEL-28 melanoma) was greater than 100 µM, the TGI (MDA-MB-435) was greater than 100 µM and the TGI (A498 renal) was greater than 100 µM. For the same compound, the TGI (786-0 renal) was greater than 100 µM, the TGI (ACHN renal) was greater than 100 µM and the TGI (SN12C renal) was greater than 100 µM. It also gave a TGI (DU-145 prostate) greater than 100 µM.

Source: PubChem BioAssay (NCI)
